Measured values published in ChEMBL document CHEMBL5113383, “Application of the All-Hydrocarbon Stapling Technique in the Design of Membrane-Active Peptides” (J Med Chem, 2022).
Positions of bridges follow the written chain, without caps; N, C: chain ends. Non-standard residues stand in square brackets, D forms with d. Residues, ends and D or L forms follow the SMILES beside them. *: point of attachment. X2 = C[C@@H]1O[C@H](*)[C@@H](O)[C@H](O)[C@@H]1O; X1 = O[C@H]1[C@H](O)[C@@H](*)OC[C@H]1O; R8 = C=CCCCCCC[C@@](C)(N)C(=O)O; R5 = C=CCCC[C@@](C)(N)C(=O)O; S5 = C=CCCC[C@](C)(N)C(=O)O; Nle = CCCC[C@H](N)C(=O)O; Orn = NCCC[C@H](N)C(=O)O

What was measured:
Candida albicans [1] = assay: Antimicrobial activity against Candida albicans SC5314; format: functional
Candida albicans [2] = assay: Antimicrobial activity against Candida albicans 901; format: functional
Candida albicans [3] = assay: Antimicrobial activity against Candida albicans 904; format: functional
Candida tropicalis [4] = assay: Antimicrobial activity against Candida tropicalis ATCC 20026; format: functional
Candida tropicalis [5] = assay: Antimicrobial activity against Candida tropicalis 895; format: functional
Nakaseomyces glabratus [6] = assay: Antimicrobial activity against Candida glabrata ATCC 1182; format: functional
Nakaseomyces glabratus [7] = assay: Antimicrobial activity against Candida glabrata 896; format: functional
[Candida] auris [8] = Antimicrobial activity against Candida auris 918; format: functional; details: Candidozyma auris
[Candida] auris [9] = Antimicrobial activity against Candida auris 919; format: functional; details: Candidozyma auris
Pichia kudriavzevii = assay: Antimicrobial activity against Candida krusei ATCC 2340; format: functional
Candida parapsilosis = assay: Antimicrobial activity against Candida parapsilosis ATCC 22010; format: functional; details: Lodderomyces parapsilosis
[10] = Hemolytic activity in human erythrocytes incubated for 1 hr; format: toxicity, cell-based, Erythrocyte; details: for hemolysis at 1 h: read-out: Activity

Molecule | HC50 at 1 h [10] [µM] | other results
Ac-GLFDIIKKIAESF-NH2 | – | MIC (Candida albicans [1]): > 64 µg/mL; MIC (Candida albicans [2]): > 128 µg/mL; MIC (Candida albicans [3]): > 128 µg/mL; MIC (Candida tropicalis [4]): > 128 µg/mL; MIC (Candida tropicalis [5]): > 128 µg/mL; MIC (Nakaseomyces glabratus [6]): > 128 µg/mL; MIC (Nakaseomyces glabratus [7]): > 128 µg/mL; MIC ([Candida] auris [8]): > 128 µg/mL; MIC ([Candida] auris [9]): > 128 µg/mL; MIC (Pichia kudriavzevii): > 128 µg/mL; MIC (Candida parapsilosis): > 128 µg/mL
CC[C@H](C)[C@H](NC(=O)CN)C(=O)NCC(=O)N[C@@H](CCCCN)C(=O)N[C@@H](Cc1ccccc1)C(=O)N[C@@H](CC(C)C)C(=O)N[C@@H](Cc1cnc[nH]1)C(=O)N[C@@H](CO)C(=O)N[C@@H](C)C(=O)N[C@@H](CCCCN)C(=O)N[C@@H](CCCCN)C(=O)N[C@@H](Cc1ccccc1)C(=O)NCC(=O)N[C@@H](CCCCN)C(=O)N[C@@H](C)C(=O)N[C@@H](Cc1ccccc1)C(=O)N[C@@]1(C)CCC/C=C\CCC[C@@](C)(C(=O)N[C@@H](CC(N)=O)C(=O)N[C@@H](CO)C(N)=O)NC(=O)[C@H]([C@@H](C)CC)NC(=O)[C@H](CCC(=O)O)NC(=O)CNC1=O (H-GIGKFLHSAKKFGKAF[S5]GEI[S5]NS-NH2; staple (Z) 17-21) | – | hemolysis at 1 h [10]: < 10%
CC[C@H](C)[C@H](NC(=O)CN)C(=O)N[C@@H](CCSC)C(=O)N[C@@H](CO[C@H]1OC[C@@H](O)[C@@H](O)[C@@H]1O)C(=O)N[C@@H](CO)C(=O)N[C@@H](CC(C)C)C(=O)N[C@@H](CCSC)C(=O)N[C@@H](CCCCN)C(=O)N[C@@H](CCCCN)C(=O)N[C@@H](CC(C)C)C(=O)N[C@@]1(C)CCC/C=C\CCC[C@@](C)(C(=O)N[C@@H](CCCCN)C(N)=O)NC(=O)[C@H]([C@@H](C)CC)NC(=O)[C@H](Cc2cnc[nH]2)NC(=O)[C@H](C)NC1=O (H-GIMS(X1)SLMKKL[S5]AHI[S5]K-NH2; staple (Z) 11-15) | > 400 | –
CC[C@H](C)[C@@H]1NC(=O)[C@H](CCCCN)NC(=O)[C@H](CCCCN)NC(=O)[C@](C)(NC(=O)[C@H](CC(N)=O)NC(=O)[C@@H](N)C(C)C)CCCCCC/C=C/CCC[C@@](C)(C(=O)N[C@H](C(=O)N[C@@H](CCCCN)C(=O)N[C@H](C(=O)N[C@H](C(=O)N[C@@H](CCCCN)C(N)=O)C(C)C)C(C)C)[C@@H](C)CC)NC(=O)[C@H](CCCCN)NC(=O)CNC(=O)[C@H](CC(C)C)NC1=O (H-VN[R8]KKILGK[S5]IKVVK-NH2; staple (E) 3-10) | > 100 | –
CC[C@H](C)[C@H](NC(=O)CN)C(=O)NCC(=O)N[C@@H](CCCCN)C(=O)N[C@@H](Cc1ccccc1)C(=O)N[C@@H](CC(C)C)C(=O)N[C@@H](Cc1cnc[nH]1)C(=O)N[C@@H](CO)C(=O)N[C@@H](C)C(=O)N[C@@H](CCCCN)C(=O)N[C@@H](CCCCN)C(=O)N[C@@H](Cc1ccccc1)C(=O)NCC(=O)N[C@@H](CCCCN)C(=O)N[C@@H](C)C(=O)N[C@@H](Cc1ccccc1)C(=O)N[C@H](C(=O)NCC(=O)N[C@@]1(C)CCC/C=C\CCC[C@@](C)(C(N)=O)NC(=O)[C@H](CC(N)=O)NC(=O)[C@H](CCSC)NC(=O)[C@H]([C@@H](C)CC)NC1=O)C(C)C (H-GIGKFLHSAKKFGKAFVG[S5]IMN[S5]-NH2; staple (Z) 19-23) | – | hemolysis at 1 h [10]: 100%
CC[C@H](C)[C@H](NC(=O)[C@H](CCCCN)NC(=O)[C@H](CCCCN)NC(=O)[C@H](Cc1c[nH]c2ccccc12)NC(=O)[C@H](CC(N)=O)NC(=O)[C@@H](N)C(C)C)C(=O)N[C@@H](CC(C)C)C(=O)NCC(=O)N[C@@H](CCCCN)C(=O)N[C@@]1(C)CCC/C=C\CCC[C@@](C)(C(=O)N[C@@H](CCCCN)C(N)=O)NC(=O)[C@H](C(C)C)NC(=O)[C@H](CCCCN)NC(=O)[C@H]([C@@H](C)CC)NC1=O (H-VNWKKILGK[S5]IKV[S5]K-NH2; staple (Z) 10-14) | 69 | –
H-GIMSSLMKKLAAHIAK-NH2 | > 400 | –
CCCC[C@@H]1NC(=O)[C@@](C)(NC(=O)[C@H](CCCCN)NC(=O)[C@@H]2CCCN2C(=O)[C@H](CC(C)C)NC(=O)[C@]2(C)CCC/C=C\CCC[C@](C)(NC(=O)[C@H](CO)NC(=O)[C@H](CC(C)C)NC(=O)[C@H](Cc3ccccc3)NC(=O)CN)C(=O)N[C@@H](CC(C)C)C(=O)N[C@@H](CCCN)C(=O)N[C@@H](CCCCN)C(=O)N2)CCC/C=C\CCC[C@@](C)(C(=O)N[C@@H](CCCCN)C(N)=O)NC(=O)[C@H](Cc2cnc[nH]2)NC(=O)[C@H](C)NC1=O (H-GFLS[S5]L[Orn]K[S5]LPK[S5][Nle]AH[S5]K-NH2; staple (Z) 5-9, 13-17) | 13.9 | –
CCCC[C@H](NC(=O)[C@H](Cc1cnc[nH]1)NC(=O)[C@H](C)NC(=O)[C@H](CCCC)NC(=O)[C@@H](NC(=O)[C@H](CCCCN)NC(=O)[C@@H]1CCCN1C(=O)[C@]1(C)CCC/C=C/CCCCCC[C@@](C)(NC(=O)[C@H](Cc2ccccc2)NC(=O)CN)C(=O)N[C@@H](CO)C(=O)N[C@@H]([C@@H](C)CC)C(=O)N[C@@H](CC(C)C)C(=O)N[C@@H](CCCCN)C(=O)N[C@@H](CCCCN)C(=O)N[C@@H](C(C)C)C(=O)N1)C(C)C)C(=O)N[C@@H](CCCCN)C(N)=O (H-GF[R8]SILKKV[S5]PKV[Nle]AH[Nle]K-NH2; staple (E) 3-10) | 20 | –
CCCC[C@H](NC(=O)[C@H](Cc1cnc[nH]1)NC(=O)[C@H](C)NC(=O)[C@H](CCCC)NC(=O)[C@@H](NC(=O)[C@H](CCCCN)NC(=O)[C@@H]1CCCN1C(=O)[C@H](CC(C)C)NC(=O)[C@@]1(C)CCC/C=C\CCC[C@](C)(NC(=O)[C@H](CO)NC(=O)[C@H](CC(C)C)NC(=O)[C@H](Cc2ccccc2)NC(=O)CN)C(=O)N[C@@H](CC(C)C)C(=O)N[C@@H](CCCCN)C(=O)N[C@@H](CCCCN)C(=O)N1)C(C)C)C(=O)N[C@@H](CCCCN)C(N)=O (H-GFLS[S5]LKK[R5]LPKV[Nle]AH[Nle]K-NH2; staple (Z) 5-9) | 14.7 | –
CCCC[C@@H]1NC(=O)[C@@](C)(NC(=O)[C@H](CCCCN)NC(=O)[C@@H]2CCCN2C(=O)[C@H](CC(C)C)NC(=O)[C@@H](NC(=O)[C@H](CCCCN)NC(=O)[C@H](CCCCN)NC(=O)[C@H](CC(C)C)NC(=O)[C@@H](NC(=O)[C@H](CO)NC(=O)[C@H](CC(C)C)NC(=O)[C@H](Cc2ccccc2)NC(=O)CN)[C@@H](C)CC)C(C)C)CCC/C=C\CCC[C@@](C)(C(=O)N[C@@H](CCCCN)C(N)=O)NC(=O)[C@H](Cc2cnc[nH]2)NC(=O)[C@H](C)NC1=O (H-GFLSILKKVLPK[S5][Nle]AH[S5]K-NH2; staple (Z) 13-17) | 18.1 | –
CC[C@H](C)[C@H](NC(=O)[C@]1(C)CCC/C=C\CCC[C@](C)(NC(=O)[C@H](CCCCN)NC(=O)[C@H](CCCCN)NC(=O)[C@H](Cc2c[nH]c3ccccc23)NC(=O)[C@H](CC(N)=O)NC(=O)[C@@H](N)C(C)C)C(=O)N[C@@H](CC(C)C)C(=O)NCC(=O)N[C@@H](CCCCN)C(=O)N1)C(=O)N[C@@H](CCCCN)C(=O)N[C@H](C(=O)N[C@H](C(=O)N[C@@H](CCCCN)C(N)=O)C(C)C)C(C)C (H-VNWKK[S5]LGK[S5]IKVVK-NH2; staple (Z) 6-10) | 31.3 | –
H-GIGKFLHSAKKFGKAFVGEIMNS-NH2 | – | hemolysis at 1 h [10]: < 2%
CC[C@H](C)[C@H](NC(=O)[C@H](CCCCN)NC(=O)CNC(=O)[C@H](CC(C)C)NC(=O)[C@]1(C)CCC/C=C\CCC[C@](C)(NC(=O)[C@@H](N)C(C)C)C(=O)N[C@@H](Cc2c[nH]c3ccccc23)C(=O)N[C@@H](CCCCN)C(=O)N[C@@H](CCCCN)C(=O)N1)C(=O)N[C@H](C(=O)N[C@@H](CCCCN)C(=O)N[C@H](C(=O)N[C@H](C(=O)N[C@@H](CCCCN)C(N)=O)C(C)C)C(C)C)[C@@H](C)CC (H-V[S5]WKK[S5]LGKIIKVVK-NH2; staple (Z) 2-6) | 30 | –
CC[C@H](C)[C@H](NC(=O)CN)C(=O)N[C@@H](CCSC)C(=O)N[C@@H](CO[C@H]1O[C@@H](C)[C@@H](O)[C@@H](O)[C@@H]1O)C(=O)N[C@@H](CO)C(=O)N[C@@H](CC(C)C)C(=O)N[C@@H](CCSC)C(=O)N[C@@H](CCCCN)C(=O)N[C@@H](CCCCN)C(=O)N[C@@H](CC(C)C)C(=O)N[C@@]1(C)CCC/C=C\CCC[C@@](C)(C(=O)N[C@@H](CCCCN)C(N)=O)NC(=O)[C@H]([C@@H](C)CC)NC(=O)[C@H](Cc2cnc[nH]2)NC(=O)[C@H](C)NC1=O (H-GIMS(X2)SLMKKL[S5]AHI[S5]K-NH2; staple (Z) 11-15) | > 400 | –
CCCC[C@H](NC(=O)[C@H](Cc1cnc[nH]1)NC(=O)[C@H](C)NC(=O)[C@H](CCCC)NC(=O)[C@@H](NC(=O)[C@H](CCCCN)NC(=O)[C@@H]1CCCN1C(=O)[C@]1(C)CCC/C=C\CCCCCC[C@@](C)(NC(=O)[C@H](Cc2ccccc2)NC(=O)CN)C(=O)N[C@@H](CO)C(=O)N[C@@H]([C@@H](C)CC)C(=O)N[C@@H](CC(C)C)C(=O)N[C@@H](CCCCN)C(=O)N[C@@H](CCCCN)C(=O)N[C@@H](C(C)C)C(=O)N1)C(C)C)C(=O)N[C@@H](CCCCN)C(N)=O (H-GF[R8]SILKKV[S5]PKV[Nle]AH[Nle]K-NH2; staple (Z) 3-10) | 11 | –
CCCC[C@H](NC(=O)[C@H](Cc1cnc[nH]1)NC(=O)[C@H](C)NC(=O)[C@H](CCCC)NC(=O)[C@@H](NC(=O)[C@H](CCCCN)NC(=O)[C@@H]1CCCN1C(=O)[C@H](CC(C)C)NC(=O)[C@@H](NC(=O)[C@H](CCCCN)NC(=O)[C@H](CCCCN)NC(=O)[C@H](CC(C)C)NC(=O)[C@@H](NC(=O)[C@H](CO)NC(=O)[C@H](CC(C)C)NC(=O)[C@H](Cc1ccccc1)NC(=O)CN)[C@@H](C)CC)C(C)C)C(C)C)C(=O)N[C@@H](CCCCN)C(N)=O (H-GFLSILKKVLPKV[Nle]AH[Nle]K-NH2) | 50 | –
CC[C@H](C)[C@@H]1NC(=O)[C@H](CCCCN)NC(=O)[C@H](CCCCN)NC(=O)[C@](C)(NC(=O)[C@H](CC(N)=O)NC(=O)[C@@H](N)C(C)C)CCCCCC/C=C\CCC[C@@](C)(C(=O)N[C@H](C(=O)N[C@@H](CCCCN)C(=O)N[C@H](C(=O)N[C@H](C(=O)N[C@@H](CCCCN)C(N)=O)C(C)C)C(C)C)[C@@H](C)CC)NC(=O)[C@H](CCCCN)NC(=O)CNC(=O)[C@H](CC(C)C)NC1=O (H-VN[R8]KKILGK[S5]IKVVK-NH2; staple (Z) 3-10) | 100 | –
